The NIST ThermoML archive (doi:10.1016/j.jct.2014.04.016)
“And” between values parts separate entries of the source, which are not always exact repeats. Identical values can stand only once.

Assay: xn = mol fraction of the nth substance listed
Conditions: 100 kPa; for electrical conductivity: Alternating current cell with electrodes; for viscosity: Concentric cylinders viscometry; for mass density: Vibrating tube method

CCCCCCCCOS(=O)(=O)[O-].CCn1cc[n+](C)c1 [1-ethyl-3-methylimidazolium octyl sulfate] + O
Conditions | electrical conductivity | mass density | viscosity
278.1 K, Glass, x1 = 0.1197 | – | – | 591.8 mPa·s
278.1 K, Glass, x1 = 0.3555 | 0.188 S/m | – | 2561 mPa·s and 2061 mPa·s
278.1 K, Liquid, x1 = 0.0401 | 1.32 S/m and 1.31 S/m | – | –
278.1 K, Liquid, x1 = 0.0586 | 1.24 S/m | – | –
278.1 K, Liquid, x1 = 0.1197 | – | 1079 kg/m3 | –
278.1 K, Liquid, x1 = 0.1402 | – | 1080.9 kg/m3 | –
278.1 K, Liquid, x1 = 0.3555 | – | 1099.7 kg/m3 and 1099.8 kg/m3 | –
278.1 K, Liquid, x1 = 0.4108 | 0.144 S/m | 1101.5 kg/m3 | 394.6 mPa·s
278.1 K, Liquid, x1 = 0.4688 | 0.097 S/m | – | –
278.1 K, Liquid, x1 = 0.5001 | 0.089 S/m | – | –
278.6 K, Glass, x1 = 0.3555 | – | – | 1160 mPa·s
278.6 K, Liquid, x1 = 0.3555 | – | 1099.4 kg/m3 | –
279.1 K, Glass, x1 = 0.3555 | 0.198 S/m | – | 633.2 mPa·s
279.1 K, Liquid, x1 = 0.0803 | 1.1 S/m | – | –
279.1 K, Liquid, x1 = 0.1197 | 0.866 S/m | – | –
279.1 K, Liquid, x1 = 0.3555 | – | 1098.8 kg/m3 | –
280.1 K, Glass, x1 = 0.1402 | 0.788 S/m | – | –
280.1 K, Liquid, x1 = 0.3555 | 0.206 S/m and 0.205 S/m | 1098.3 kg/m3 | 307.6 mPa·s
280.1 K, Liquid, x1 = 0.4688 | 0.109 S/m | – | –
280.6 K, Liquid, x1 = 0.3555 | – | 1097.9 kg/m3 | 297.5 mPa·s
281.1 K, Glass, x1 = 0.1402 | 0.815 S/m and 0.816 S/m | – | –
281.1 K, Glass, x1 = 0.1605 | 0.737 S/m | – | –
281.1 K, Liquid, x1 = 0.0803 | 1.22 S/m | – | –
281.1 K, Liquid, x1 = 0.1197 | 0.927 S/m | – | –
281.1 K, Liquid, x1 = 0.3555 | 0.215 S/m and 0.214 S/m | 1097.6 kg/m3 | 287.4 mPa·s
281.1 K, Liquid, x1 = 0.4108 | 0.168 S/m | – | –
282.1 K, Glass, x1 = 0.1402 | 0.848 S/m and 0.847 S/m | – | –
282.1 K, Glass, x1 = 0.1605 | 0.766 S/m | – | –
282.1 K, Glass, x1 = 0.3076 | – | – | 12190 mPa·s
282.1 K, Liquid, x1 = 0.3076 | – | 1094.6 kg/m3 | –
282.1 K, Liquid, x1 = 0.3555 | – | 1096.9 kg/m3 | 268.8 mPa·s
282.6 K, Glass, x1 = 0.3076 | – | – | 7608 mPa·s
282.6 K, Liquid, x1 = 0.3076 | – | 1094.3 kg/m3 | –
283.1 K, Glass, x1 = 0.1402 | 0.873 S/m and 0.874 S/m | – | 11410 mPa·s
283.1 K, Glass, x1 = 0.1605 | 0.793 S/m and 0.791 S/m | – | –
283.1 K, Glass, x1 = 0.2119 | 0.566 S/m and 0.563 S/m | – | –
283.1 K, Glass, x1 = 0.2632 | 0.393 S/m | – | –
283.1 K, Glass, x1 = 0.3076 | – | – | 2873 mPa·s
283.1 K, Liquid, x1 = 0.0401 | 1.48 S/m | – | –
283.1 K, Liquid, x1 = 0.0586 | 1.46 S/m and 1.45 S/m | – | –
283.1 K, Liquid, x1 = 0.0803 | 1.29 S/m | – | –
283.1 K, Liquid, x1 = 0.1197 | 0.987 S/m | 1075.7 kg/m3 | 105.5 mPa·s
283.1 K, Liquid, x1 = 0.1402 | – | 1078.9 kg/m3 | –
283.1 K, Liquid, x1 = 0.3076 | – | 1094.1 kg/m3 | –
283.1 K, Liquid, x1 = 0.3555 | 0.234 S/m and 0.236 S/m | 1096.1 kg/m3 and 1096.2 kg/m3 | 251.8 mPa·s and 251.7 mPa·s
283.1 K, Liquid, x1 = 0.4108 | 0.189 S/m | 1098 kg/m3 | 282.2 mPa·s
283.1 K, Liquid, x1 = 0.4688 | 0.128 S/m and 0.124 S/m | – | –
283.1 K, Liquid, x1 = 0.5001 | 0.117 S/m | – | –
283.6 K, Glass, x1 = 0.3076 | – | – | 1129 mPa·s
283.6 K, Liquid, x1 = 0.3076 | – | 1093.8 kg/m3 | –
284.1 K, Glass, x1 = 0.1605 | 0.819 S/m | – | –
284.1 K, Glass, x1 = 0.2632 | 0.409 S/m | – | –
284.1 K, Glass, x1 = 0.3076 | 0.335 S/m | – | 560.6 mPa·s
284.1 K, Liquid, x1 = 0.1402 | 0.908 S/m and 0.907 S/m | – | –
284.1 K, Liquid, x1 = 0.3076 | – | 1093.6 kg/m3 | –
285.1 K, Glass, x1 = 0.1402 | – | – | 6220 mPa·s
285.1 K, Glass, x1 = 0.1605 | 0.847 S/m and 0.848 S/m | – | –
285.1 K, Glass, x1 = 0.2632 | 0.431 S/m | – | –
285.1 K, Glass, x1 = 0.3076 | 0.349 S/m | – | –
285.1 K, Liquid, x1 = 0.0803 | 1.37 S/m | – | –
285.1 K, Liquid, x1 = 0.1197 | 1.06 S/m | – | –
285.1 K, Liquid, x1 = 0.1402 | 0.934 S/m and 0.936 S/m | 1077.9 kg/m3 | –
285.1 K, Liquid, x1 = 0.3076 | – | 1092.7 kg/m3 | 191.9 mPa·s
285.1 K, Liquid, x1 = 0.3555 | 0.258 S/m and 0.257 S/m | – | –
285.1 K, Liquid, x1 = 0.4108 | 0.209 S/m | – | –
285.1 K, Liquid, x1 = 0.4688 | 0.142 S/m | – | –
285.6 K, Liquid, x1 = 0.3076 | – | 1092.4 kg/m3 | 186 mPa·s
286.1 K, Glass, x1 = 0.1402 | – | – | 4375 mPa·s
286.1 K, Glass, x1 = 0.1605 | 0.875 S/m and 0.876 S/m | – | –
286.1 K, Glass, x1 = 0.2632 | 0.449 S/m and 0.445 S/m | – | –
286.1 K, Glass, x1 = 0.3076 | 0.363 S/m and 0.362 S/m | – | –
286.1 K, Liquid, x1 = 0.1402 | 0.965 S/m and 0.967 S/m | 1077.3 kg/m3 | –
286.1 K, Liquid, x1 = 0.3076 | – | 1092 kg/m3 | 180.2 mPa·s
286.6 K, Glass, x1 = 0.2632 | 0.455 S/m | – | –
286.6 K, Liquid, x1 = 0.2632 | – | 1088.8 kg/m3 | –
286.6 K, Liquid, x1 = 0.3076 | – | 1091.7 kg/m3 | 174.6 mPa·s
287.1 K, Glass, x1 = 0.1402 | – | – | 2587 mPa·s
287.1 K, Glass, x1 = 0.1605 | 0.904 S/m | – | –
287.1 K, Glass, x1 = 0.1766 | 0.817 S/m | – | –
287.1 K, Glass, x1 = 0.2632 | 0.463 S/m | – | 14710 mPa·s
287.1 K, Liquid, x1 = 0.1197 | 1.13 S/m | – | –
287.1 K, Liquid, x1 = 0.1402 | 0.996 S/m and 0.997 S/m | – | –
287.1 K, Liquid, x1 = 0.1605 | 0.906 S/m | – | –
